Test results: patent publication US20240247029A1, “INTERLEUKIN-1 RECEPTOR MODULATORS AND USES THEREOF” (VALORISATION HSJ, LIMITED PARTNERSHIP, priority 2020, published 2024)

Legend:
[1] = Quiniou et al. 2008; cited from earlier work
[2] = tested on: IL-1β-induced NF-κB signaling in HEK-Blue IL-33/IL-1β cells; assay: NF-κB QUANTI-Blue assay; type: cell-based; settings: peptide 10^−6 M, 30 min pretreatment, IL-1β 100 ng/ml
Experimental: FIG. 3 is a graph showing the effects of peptides 1 and 2 on IL-1β-induced NF-κB signaling in HEK-Blue cells as quantified in the QUANTI-blue assay. After pre-incubation with peptide or vehicle, HEK-Blue cells were stimulated with IL-1β for 24 h, and secreted alkaline phosphatase activity was spectroscopically detected as a reporter product from the transcription of the NF-κB gene. Data shown represents the average of 2 experiments (each with n=4 per treatment group): ****p<0.0001 compared to group treated only with IL-1β.
HEK-Blue IL-33/IL-1β cells (InvivoGen) were respectively pretreated with peptides 1 and 2 (10^−6 M), or Kineret (1.0 mg/mL) for 30 min, followed by treatment with a constant concentration of […] (100 ng/ml), and incubation at 37° C. for 4 h. Levels of secreted alkaline phosphatase in cell culture supernatant were determined using the QUANTI-Blue assay, according to the manufacturer's instructions (InvivoGen). Alkaline phosphatase activity was assessed by measuring the optical density (OD) at 620-655 nm with an EnVision Multilabel micro plate reader (PerkinElmer, Waltham, MA). Data are representative of 3 experiments (each with n=4 per treatment group).

Sprague Dawley rat pups = assay: Oxygen-induced retinopathy (OIR) model; type: in vivo; settings: 2 mg/kg/day intraperitoneal twice daily, 80% oxygen P5 to P10
Excerpt: Experiments in the oxygen-induced retinopathy rodent model were preformed according to the method described previously (Geranurimi et al. 2019), and summarized below.
Animals. Two-day-old (P2) Sprague Dawley rat pups and their mothers were ordered from Charles River (Raleigh, SC, USA) and acclimatized for 3 days in standard conditions. All procedures and protocols involving the use of the rats were approved by the Animal Care Committee of the research center of Hopital Maisonneuve-Rosemont and are in accordance with the Statement for the Use of Animals in Ophthalmic and Vision Research approved by the Association for Research in Vision and Ophthalmology, and guidelines established by the Canadian Council on Animal Care.
Oxygen-Induced Retinopathy in Sprague Dawley Rats. The 80% oxygen model of retinopathy was conducted as previously described (Geranurimi et al. 2019). Briefly, litters of P5 pups and their mothers were kept in a controlled 80% oxygen environment until P10. The pups were respectively injected intraperitoneally twice daily with PBS vehicle (20 μL per injection), peptide 1 or derivatives 2 (titrated to a daily dose of 2 mg/kg/day). Control litters were kept under normal air atmosphere and standard conditions. On P10, pups were euthanized by decapitation under 2% isoflurane anesthesia. Eyes were enucleated and fixed in 4% paraformaldehyde, then stored at 4° C. in phosphate-buffered saline (PBS) until further processing.
Retinal Flatmount and Immunohistochemistry. The fixed eyes were dissected, and the obtained retinas were incubated with antibodies and mounted onto slides as previously described in (Geranurimi et al. 2019). Briefly, the cornea and lens were removed from the eyes, and the retina gently removed from the underlying sclera-choroid-retinal pigmented epithelium (RPE) complex. Retinas were treated for 1h with blocking solution [1% bovine serum albumin (BSA), 1% normal goat serum, 0.1% Triton X-100 and 0.05% Tween-20 in PBS], and then incubated overnight with lectin and Iba-1 primary antibody, followed by Alexa-594-conjugated secondary antibody for 2 h. Retinas were then mounted onto microscope slides under coverslips with anti-fade mounting medium.
Microscopy. Retinal flatmounts were imaged using the Zeiss Axiolmager Z2 and the MosaiX feature of the AxioVision software as previously described (Geranurimi et al. 2019). Representative images after Iba-1 staining were taken using a laser scanning confocal microscope (Olympus IX81 with Fluoview FV1000 Scanhead) using the Fluoview Software at 30× magnification.
Quantification and Data Analysis. The FIJI software was used to quantify the area of vaso-obliteration in each retina, expressed as a percentage of the area of the whole retina. The number of Iba-1-positive cells was counted using the cell counter plug-in in the FIJI software, and the average of cell counts in 4 fields per retina was calculated. Data was analyzed using Prism 7 with one-way ANOVA and the Dunnett's test for multiple comparisons. Results were treated as significant when p was less than 0.05 and expressed as mean+SEM.

timed-pregnant CD-1 mice = assay: LPS-induced preterm birth model in mice; type: in vivo, mouse; settings: 2 mg/kg/day subcutaneous, LPS 10 μg intraperitoneal on G16.5; delivery before G18.5; LPS alone ˜80%
Experimental: FIG. 6 is a graph showing the effects of peptides 1 and 2 on prevention of PTB. In brief, pregnant dams on day 16.5 of gestation (G16.5) were subcutaneously pretreated with peptides 1 and 2 (2 mg/kg/day subcutaneous injections) or vehicle, followed by LPS (10 μg intraperitoneal injection), and observed for delivery of pups. A dam was considered as delivering preterm if at least one pup was delivered before G18.5. n=4-5 dams per treatment group.
Timed-pregnant CD-1 mice at 16.5 days of gestation (G16.5) were anesthetized with 2% isoflurane and received an intraperitoneal injection of lipopolysaccharide (LPS, n=4 per group, a single dose of 10 ug) (Nadeau-Vallée et al., 2015; Kakinuma et al., 1997). A dosage of 2 mg/kg/day of peptides 1 and 2 or vehicle was respectively injected subcutaneously in the neck, every 12h until delivery. On G16.5, a dose of 1 mg/kg was injected 30 min before stimulation with LPS (to allow distribution of drugs to target tissues) and 1 mg/kg was injected 12h after stimulation (n=4 each treatment). Mice delivery was assessed every hour until term (G19-G19.5). A mouse was considered as delivering prematurely if the first pup was delivered earlier than G18.5. Data was analyzed using Prism 7 (GraphPad Software, San Diego, CA, USA) with one-way ANOVA and Dunnett's test for multiple comparisons. Outliers were detected using Grubb's test. Results were treated as significant when p was <0.05 and expressed as mean+SEM.
From the results of the in vitro screens, a subset of six (3R,4S)-β-substituted-Agl^3 peptides (e.g., 2c, 2d, 2f, 2l, 2n, 2q) were selected for examination in vivo in a CD-1 mouse model of preterm birth (PTB), and a Sprague Dawley rat model of oxygen-induced retinopathy (OIR). In the PTB model, timed-pregnant CD-1 dams were pre-treated with peptides 1 or 2, or PBS vehicle, and then injected with LPS on day 16.5 of gestation (G16.5). A bacterial cell wall component that contains PAMPs, LPS is known to reliably induce labor via pro-inflammatory pathways implicating IL-1 (Hirsch and Wang 2005). The CD-1 mice have a gestation of 19.2 days (Goupil et al. 2010). Dams that delivered at least one pup before G18.5 were considered to have given birth prematurely. In the absence of peptide, LPS alone induced premature labor in ˜80% of treated mice (FIG. 6). Peptide 1 and triazoles 2 l and 2q, all reduced the PTB rate to ˜20%.

human thymocyte = settings: in vitro (Jamieson et al. 2009); cited from earlier work

In the case of “H-D-Arg-D-Tyr-D-Thr-D-Val-D-Glu-D-Leu-D-Ala-NH2 [compound 1, reference compound]”, the “in vivo effects in models of hyperthermia and inflammatory bowel disease” value [1] is given as “robust in vivo effects”, the “effect on IL-1β-induced NF-κB signaling (secreted alkaline phosphatase)” value [2] is given as “no effect” and the “retinal microglial morphology/activation (Iba-1 staining)” value (Sprague Dawley rat pups) is given as “ramified and branched microglia”. For the same substance, the “extent of vaso-obliteration (percentage of total retinal area)” value (Sprague Dawley rat pups; vehicle ˜30%) was roughly 20%, the PTB rate (timed-pregnant CD-1 mice) was roughly 20% and the “IL-1β-induced human thymocyte cell proliferation” value (human thymocyte) was “blocked”.
